Laboratory results taken from patent US10954232B2, “Pyrazole derivative as ALK5 inhibitor and uses thereof” (HANMI PHARMACEUTICAL CO., LTD., priority 2016, dated 2021).

What follows are compounds tested against T1, ALK5 kinase (Homo sapiens, UniProt P36897) (assay: Activity inhibition test on ALK5 enzyme (LanthaScreen Eu binding kinase assay)). Conditions: kinase tracer 178, 60 minutes at room temperature.
T1 construct: GST; purchased Thermo Fisher Scientific Solutions
T1 sequence (P36897 34-503): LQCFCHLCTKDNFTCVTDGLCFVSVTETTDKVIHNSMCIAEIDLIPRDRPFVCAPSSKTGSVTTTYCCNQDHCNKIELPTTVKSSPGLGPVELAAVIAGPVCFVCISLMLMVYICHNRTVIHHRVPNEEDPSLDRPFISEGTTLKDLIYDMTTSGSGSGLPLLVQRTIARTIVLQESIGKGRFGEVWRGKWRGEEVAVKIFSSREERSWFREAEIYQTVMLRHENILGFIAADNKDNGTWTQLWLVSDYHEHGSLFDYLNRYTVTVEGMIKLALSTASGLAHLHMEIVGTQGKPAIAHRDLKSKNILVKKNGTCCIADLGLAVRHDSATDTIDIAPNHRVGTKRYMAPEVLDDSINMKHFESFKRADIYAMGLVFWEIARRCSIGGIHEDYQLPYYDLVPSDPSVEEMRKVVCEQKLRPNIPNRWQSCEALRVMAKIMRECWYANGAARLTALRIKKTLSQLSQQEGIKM
Experimental: For each of the compounds obtained in Examples 1 to 227, inhibitory activity against ALK5 kinase was measured.
For this, a LanthaScreen Eu binding kinase assay method was used, and ALK5 kinase, a kinase buffer, a kinase tracer 178, and a LanthaScreen Eu-GST binding antibody were all purchased from Thermo Fisher Scientific Solutions. Each of the compounds was made into a 10 mM DMSO solution, and diluted by 1/10 to a concentration of 1 μM to 0.0001 μM with an aqueous solution containing 4% DMSO. The test was performed in 384 well plates (well polystyrene low volume round-bottomed plates). First, 5 μL of the diluted compound solution was added, then 5 μL of the kinase/antibody mixture solution was introduced thereto, and 5 μL of the tracer was introduced thereto. Herein, these were added to each well so that the final kinase concentration became 5 nM, the final Eu-GST binding antibody concentration 2 nM, and the kinase tracer 178 concentration 10 nM, and the result was reacted in a stirrer for 60 minutes at room temperature. Then a fluorescence value was measured using a fluorescence meter (molecular device) ([…], 665 nm emission filter). Herein, as for the degree of compound activity to inhibit the kinase reaction, a phosphorylate rate was calculated from 0% to 100% with respect to a control group according to the protocol included in the kit, and a 50% inhibitory concentration (IC50) value was calculated by obtaining the x-axis concentration in the region where 50% activity was inhibited.

| SMILES | IC50 [nM] |
| --- | --- |
| Cc1cccc(-n2nc(C(=O)Nc3ccc(F)cc3)cc2-c2ccc3ncsc3c2)n1 [Example 29, 5-(benzo[d]thiazol-6-yl)-N-(4-fluorophenyl)-1-(6-methylpyridin-2-yl)-1H-pyrazole-3-carboxyamide] | 3.9 |
| Cc1cccc(-n2nc(C(=O)Nc3ccc(F)c(F)c3)cc2-c2ccc3ncsc3c2)n1 [Example 30, 5-(benzo[d]thiazol-6-yl)-N-(3,4-difluorophenyl)-1-(6-methylpyridin-2-yl)-1H-pyrazole-3-carboxyamide] | 5.8 |
| Cc1cccc(-n2nc(C(=O)Nc3ccc(Cl)cc3)cc2-c2ccc3ncsc3c2)n1 [Example 33, 5-(benzo[d]thiazol-6-yl)-N-(4-chlorophenyl)-1-(6-methylpyridin-2-yl)-1H-pyrazole-3-carboxyamide] | 10 to 100 |
| CSc1ccc(NC(=O)c2cc(-c3ccc4ncsc4c3)n(-c3cccc(C)n3)n2)cc1 [Example 36, 5-(benzo[d]thiazol-6-yl)-1-(6-methylpyridin-2-yl)-N-(4-(methylthio)phenyl)-1H-pyrazole-3-carboxyamide] | < 10 |
| Cc1cccc(-n2nc(C(=O)Nc3cccc(S(C)(=O)=O)c3)cc2-c2ccc3ncsc3c2)n1 [Example 40, 5-(benzo[d]thiazol-6-yl)-1-(6-methylpyridin-2-yl)-N-(3-(methylsulfonyl)phenyl)-1H-pyrazole-3-carboxyamide] | 3.3 |
| Cc1cccc(-n2nc(C(=O)Nc3ccc(S(=O)(=O)C4CC4)cc3)cc2-c2ccc3ncsc3c2)n1 [Example 43, 5-(benzo[d]thiazol-6-yl)-N-(4-(cyclopropylsulfonyl)phenyl)-1-(6-methylpyridin-2-yl)-1H-pyrazole-3-carboxyamide] | 4.4 |
| Cc1cccc(-n2nc(C(=O)Nc3cccc(S(N)(=O)=O)c3)cc2-c2ccc3ncsc3c2)n1 [Example 45, 5-(benzo[d]thiazol-6-yl)-1-(6-methylpyridin-2-yl)-N-(3-sulfamoylphenyl)-1H-pyrazole-3-carboxyamide] | 2.4 |
| CNS(=O)(=O)c1cccc(NC(=O)c2cc(-c3ccc4ncsc4c3)n(-c3cccc(C)n3)n2)c1 [Example 47, 5-(benzo[d]thiazol-6-yl)-1-(6-methylpyridin-2-yl)-N-(3-(N-methylsulfamoyl)phenyl)-1H-pyrazole-3-carboxyamide] | 1.2 |
| Cc1cccc(-n2nc(C(=O)Nc3cccc(S(=O)(=O)NC4CC4)c3)cc2-c2ccc3ncsc3c2)n1 [Example 49, 5-(benzo[d]thiazol-6-yl)-N-(3-(N-cyclopropylsulfamoyl)phenyl)-1-(6-methylpyridin-2-yl)-1H-pyrazole-3-carboxyamide] | 5.6 |
| Cc1cccc(-n2nc(C(=O)Nc3cccc(NS(C)(=O)=O)c3)cc2-c2ccc3ncsc3c2)n1 [Example 53, 5-(benzo[d]thiazol-6-yl)-1-(6-methylpyridin-2-yl)-N-(3-(methylsulfonamido)phenyl)-1H-pyrazole-3-carboxyamide] | 2.4 |
| Cc1cccc(-n2nc(C(=O)Nc3cccc(NS(=O)(=O)C4CC4)c3)cc2-c2ccc3ncsc3c2)n1 [Example 54, 5-(benzo[d]thiazol-6-yl)-N-(3-(cyclopropanesulfonamido)phenyl)-1-(6-methylpyridin-2-yl)-1H-pyrazole-3-carboxyamide] | 2 |
| Cc1cccc(-n2nc(C(=O)Nc3ccc(S(=O)(=O)O)cc3)cc2-c2ccc3ncsc3c2)n1 [Example 56, 4-(5-(benzo[d]thiazol-6-yl)-1-(6-methylpyridin-2-yl)-1H-pyrazole-3-carboxyamido)benzenesulfonic acid] | 2.4 |

Now from value to compound:

| IC50 [nM] | SMILES |
| --- | --- |
| > 100 | Cc1cccc(-n2nc(C(=O)Nc3ccccc3Cl)cc2-c2ccc3ncsc3c2)n1 [Example 31, 5-(benzo[d]thiazol-6-yl)-N-(2-chlorophenyl)-1-(6-methylpyridin-2-yl)-1H-pyrazole-3-carboxyamide] |
| 10 to 100 | Cc1cccc(-n2nc(C(=O)Nc3cccc(Cl)c3)cc2-c2ccc3ncsc3c2)n1 [Example 32, 5-(benzo[d]thiazol-6-yl)-N-(3-chlorophenyl)-1-(6-methylpyridin-2-yl)-1H-pyrazole-3-carboxyamide] |
| 10 to 100 | Cc1cccc(-n2nc(C(=O)Nc3ccc(Br)cc3)cc2-c2ccc3ncsc3c2)n1 [Example 34, 5-(benzo[d]thiazol-6-yl)-N-(4-bromophenyl)-1-(6-methylpyridin-2-yl)-1H-pyrazole-3-carboxyamide] |
| 10 to 100 | CSc1cccc(NC(=O)c2cc(-c3ccc4ncsc4c3)n(-c3cccc(C)n3)n2)c1 [Example 35, 5-(benzo[d]thiazol-6-yl)-1-(6-methylpyridin-2-yl)-N-(3-(methylthio)phenyl)-1H-pyrazole-3-carboxyamide] |
| 40 | Cc1cccc(-n2nc(C(=O)Nc3ccc(SC4CC4)cc3)cc2-c2ccc3ncsc3c2)n1 [Example 37, 5-(benzo[d]thiazol-6-yl)-N-(4-(cyclopropylthio)phenyl)-1-(6-methylpyridin-2-yl)-1H-pyrazole-3-carboxyamide] |
| 1.8 | Cc1cccc(-n2nc(C(=O)Nc3cccc([S+](C)[O-])c3)cc2-c2ccc3ncsc3c2)n1 (centres unmarked) [Example 38, 5-(benzo[d]thiazol-6-yl)-1-(6-methylpyridin-2-yl)-N-(3-(methylsulfinyl)phenyl)-1H-pyrazole-3-carboxyamide] |
| 2.4 | Cc1cccc(-n2nc(C(=O)Nc3ccc([S+](C)[O-])cc3)cc2-c2ccc3ncsc3c2)n1 (centres unmarked) [Example 39, 5-(benzo[d]thiazol-6-yl)-1-(6-methylpyridin-2-yl)-N-(4-(methylsulfinyl)phenyl)-1H-pyrazole-3-carboxyamide] |
| 5.2 | Cc1cccc(-n2nc(C(=O)Nc3ccc(S(C)(=O)=O)cc3)cc2-c2ccc3ncsc3c2)n1 [Example 41, 5-(benzo[d]thiazol-6-yl)-1-(6-methylpyridin-2-yl)-N-(4-(methylsulfonyl)phenyl)-1H-pyrazole-3-carboxyamide] |
| 2.2 | CCCS(=O)(=O)c1ccc(NC(=O)c2cc(-c3ccc4ncsc4c3)n(-c3cccc(C)n3)n2)cc1 [Example 42, 5-(benzo[d]thiazol-6-yl)-1-(6-methylpyridin-2-yl)-N-(4-(propylsulfonyl)phenyl)-1H-pyrazole-3-carboxyamide] |
| 13 | Cc1cccc(-n2nc(C(=O)Nc3ccc(S(C)(=O)=O)cc3F)cc2-c2ccc3ncsc3c2)n1 [Example 44, 5-(benzo[d]thiazol-6-yl)-N-(2-fluoro-4-(methylsulfonyl)phenyl)-1-(6-methylpyridin-2-yl)-1H-pyrazole-3-carboxyamide] |
| 1.3 | Cc1cccc(-n2nc(C(=O)Nc3ccc(S(N)(=O)=O)cc3)cc2-c2ccc3ncsc3c2)n1 [Example 46] |
| 4.1 | CNS(=O)(=O)c1ccc(NC(=O)c2cc(-c3ccc4ncsc4c3)n(-c3cccc(C)n3)n2)cc1 [Example 48, 5-(benzo[d]thiazol-6-yl)-1-(6-methylpyridin-2-yl)-N-(4-(N-methylsulfamoyl)phenyl)-1H-pyrazole-3-carboxyamide] |
| 6.6 | Cc1cccc(-n2nc(C(=O)Nc3ccc(S(=O)(=O)NC4CC4)cc3)cc2-c2ccc3ncsc3c2)n1 [Example 50, 5-(benzo[d]thiazol-6-yl)-N-(4-(N-cyclopropylsulfamoyl)phenyl)-1-(6-methylpyridin-2-yl)-1H-pyrazole-3-carboxyamide] |
| 6.5 | Cc1cccc(-n2nc(C(=O)Nc3cccc(S(=O)(=O)N(C)C)c3)cc2-c2ccc3ncsc3c2)n1 [Example 51, 5-(benzo[d]thiazol-6-yl)-N-(3-(N,N-dimethylsulfamoyl)phenyl)-1-(6-methylpyridin-2-yl)-1H-pyrazole-3-carboxyamide] |
| 2.5 | Cc1cccc(-n2nc(C(=O)Nc3ccc(S(=O)(=O)N(C)C)cc3)cc2-c2ccc3ncsc3c2)n1 [Example 52, 5-(benzo[d]thiazol-6-yl)-N-(4-(N,N-dimethylsulfamoyl)phenyl)-1-(6-methylpyridin-2-yl)-1H-pyrazole-3-carboxyamide] |
| 4.2 | Cc1cccc(-n2nc(C(=O)Nc3ccc(NS(=O)(=O)C4CC4)cc3)cc2-c2ccc3ncsc3c2)n1 [Example 55, 5-(benzo[d]thiazol-6-yl)-N-(4-(cyclopropanesulfonamido)phenyl)-1-(6-methylpyridin-2-yl)-1H-pyrazole-3-carboxyamide] |
| 45 | Cc1cccc(-n2nc(C(=O)Nc3ccc(S(=O)(=O)C(F)(F)F)cc3)cc2-c2ccc3ncsc3c2)n1 [Example 57, 5-(benzo[d]thiazol-6-yl)-1-(6-methylpyridin-2-yl)-N-(4-((trifluoromethyl)sulfonyl)phenyl)-1H-pyrazole-3-carboxyamide] |
